Experimental data from ChEMBL document CHEMBL3785081 (J Med Chem, 2016).

Tests used:
[1] = Lipophilicity, log D of the compound at pH 7.4; assay type: physicochemical; conditions: buffer
Liver microsome = test: Intrinsic clearance in human liver microsomes; assay type: ADME

Structure (SMILES)	logD [1]	CLint (Liver microsome) [µL/min/g]
C=CC(=O)N1C[C@@H](COc2nc(Nc3cnn(C)c3)nc3[nH]cc(Cl)c23)[C@H](OC)C1	2.4	24
C=CC(=O)N1CC[C@@H](COc2nc(Nc3cnn(C)c3)nc3[nH]ccc23)C1	2.1	56
C#CCOc1cc2ncnc(Nc3ccc(F)c(Cl)c3)c2cc1NC(=O)C=C	4	
C=CC(=O)N1C[C@H](COC)[C@@H](COc2nc(Nc3cnn(C)c3)nc3[nH]cc(Cl)c23)C1	2.9	23
C=CC(=O)N1C[C@H](COc2nc(Nc3cnn(C)c3)nc3[nH]cc(Cl)c23)[C@@H](OC)C1 [PF-06459988]	2.5	18
C#CCCn1cc(Nc2nc(OC[C@H]3CN(C(=O)C=C)C[C@@H]3OC)c3c(Cl)c[nH]c3n2)cn1	3	
C=CC(=O)N1C[C@H](COc2nc(Nc3cnn(C)c3)nc3[nH]cc(Cl)c23)[C@@H](C(F)(F)F)C1	3	37
C=CC(=O)N1C[C@H](COc2nc(Nc3cnn(C)c3)nc3[nH]cc(Cl)c23)[C@@H](O)C1	2	12
C=CC(=O)N1C[C@H](CO)[C@@H](COc2nc(Nc3cnn(C)c3)nc3[nH]cc(Cl)c23)C1	2.3	13
C=CC(=O)N1C[C@H](COc2nc(Nc3cnn(C)c3)nc3[nH]ccc23)[C@@H](C(F)(F)F)C1	2.7	26
C=CC(=O)N1C[C@H](COc2nc(Nc3cnn(C)c3)nc3[nH]cc(Cl)c23)[C@@H](F)C1	2.7	28
C=CC(=O)Nc1cccc(Oc2nc(Nc3ccn(C)n3)nc3[nH]ccc23)c1	3	11
C=CC(=O)Nc1cccc(Oc2nc(Nc3cnn(C)c3)nc3[nH]ccc23)c1	3.2	66
C=CC(=O)Nc1cccc(Oc2nc(Nc3ccc(N4CCN(C)CC4)cc3)nc3[nH]ccc23)c1	2.7	20
C=CC(=O)N1CC[C@@H](COc2nc(Nc3cnn(C)c3)nc3[nH]cc(Cl)c23)C1	2.91	45
